According to ChEMBL document CHEMBL1140627, “Adaptive neuro-fuzzy inference system (ANFIS): a new approach to predictive modeling in QSAR applications: a study of neuro-fuzzy modeling of PCP-based NMDA receptor antagonists” (Bioorg Med Chem, 2007):

What follows are molecules tested against Glutamate NMDA receptor (assay: Displacement of [3H]TCP from NMDA receptor in rat brain membrane).
Type: cell membranes

| Structure (SMILES) | Ki [nM] |
| --- | --- |
| NC1(c2ccc(F)cc2)CCCCC1 | 5130 |
| NC1(c2cccc(O)c2)CCCCC1 | 225 |
| c1ccc(C2(N3CCCCC3)CCCCC2)cc1 [PHENCYCLIDINE] | 70 |
